How the values were obtained:
[1] = Half life in rat at 40 mg/kg, po; format: ADME, organism-based; design: dose 40 mg/kg, route oral; settings: in vivo
[2] = test system: Mus musculus; assay: Anxiolytic activity in mouse after oral administration by EPM test; format: functional; settings: read-out: MED
[3] = target: T1, Substance-P receptor (Homo sapiens, UniProt P25103); assay: Inhibition of human NK1 receptor expressed in U373MG cells at 10 uM; format: cell-based; settings: U-373MG ATCC
[4] = Oral bioavailability in rat at 40 mg/kg, po; format: ADME, organism-based; settings: in vivo
[5] = test system: Mus musculus; assay: Anxiolytic activity in orally dosed mouse assessed as reversal of DOI-induced head shake; format: functional; settings: po, read-out: MED
[6] = organism: Homo sapiens; assay: Inhibition of GABA transporter at 10 uM
[7] = target: T2, Substance-K receptor (Homo sapiens) (UniProt P21452); assay: Inhibition of human NK2 receptor expressed in CHO cells at 10 uM; format: cell-based
T2 sequence (whole entry): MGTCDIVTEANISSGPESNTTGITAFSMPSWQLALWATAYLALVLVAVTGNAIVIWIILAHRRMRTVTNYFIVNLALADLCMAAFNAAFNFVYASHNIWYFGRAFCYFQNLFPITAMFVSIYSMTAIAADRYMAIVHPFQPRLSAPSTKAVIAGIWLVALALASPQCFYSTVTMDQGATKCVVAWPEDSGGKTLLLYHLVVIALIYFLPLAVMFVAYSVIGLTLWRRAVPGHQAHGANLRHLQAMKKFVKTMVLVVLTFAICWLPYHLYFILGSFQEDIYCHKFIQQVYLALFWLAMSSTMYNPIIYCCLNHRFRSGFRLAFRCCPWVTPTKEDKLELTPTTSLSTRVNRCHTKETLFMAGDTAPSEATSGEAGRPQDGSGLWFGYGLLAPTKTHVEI

[8] = Stability in human liver microsomes after 90 min; format: ADME, Microsome; settings: read-out: Stability
[9] = Stability in rat liver microsomes after 90 min; format: ADME, Microsome; settings: read-out: Stability
[10] = Half life in rat at 15 mg/kg, po; format: ADME, organism-based; design: dose 15 mg/kg, route oral; settings: in vivo
[11] = Stability in human liver microsomes after 60 min; format: ADME, Microsome; settings: read-out: Stability
[12] = Bioavailability in cynomolgus monkey; format: ADME, organism-based, Macaca fascicularis; settings: in vivo
[13] = Stability in rat liver microsomes after 60 min; format: ADME, Microsome; settings: read-out: Stability
[14] = Half life in cynomolgus monkey; format: ADME, organism-based, Macaca fascicularis; settings: in vivo
[15] = Oral bioavailability in rat at 15 mg/kg, po; format: ADME, organism-based; settings: in vivo
[16] = target: T1, Substance-P receptor; assay: Inhibition of human NK1 receptor expressed in U373MG cells; format: cell-based, U-373MG ATCC
[17] = target: T3, Substance-K receptor (Homo sapiens, UniProt P21452); assay: Inhibition of human NK2 receptor expressed in CHO cells; format: cell-based
T3 sequence (P21452 whole entry): T2 sequence (whole entry)

[18] = Oral bioavailability in rat at 3 mg/kg, po; format: ADME, organism-based; settings: in vivo
[19] = Oral bioavailability in rat at 10 mg/kg, po; format: ADME, organism-based; settings: in vivo

T1 sequence (P25103 whole entry): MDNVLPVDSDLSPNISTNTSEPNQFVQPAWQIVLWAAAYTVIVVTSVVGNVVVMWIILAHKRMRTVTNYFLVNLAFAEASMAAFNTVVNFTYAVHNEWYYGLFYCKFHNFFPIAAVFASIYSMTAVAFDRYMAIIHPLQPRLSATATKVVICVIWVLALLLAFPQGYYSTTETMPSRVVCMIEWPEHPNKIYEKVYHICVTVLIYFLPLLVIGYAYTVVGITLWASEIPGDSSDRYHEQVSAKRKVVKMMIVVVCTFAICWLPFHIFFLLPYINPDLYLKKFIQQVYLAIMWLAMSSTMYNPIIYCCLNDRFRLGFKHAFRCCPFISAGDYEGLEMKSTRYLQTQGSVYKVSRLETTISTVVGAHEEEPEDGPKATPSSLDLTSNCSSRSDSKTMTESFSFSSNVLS

inhibition [3] [%] | inhibition [7] [%] | remaining at 1.5 h [8] [%] | remaining at 1.5 h [9] [%] | IC50 [16] [nM] | IC50 [17] [nM] | Structure (SMILES) | minimal effective dose [2] [mg/kg] | minimal effective dose [5] [mg/kg] | further results
37 | 11 | 35 | 63 | – | – | O=C(CC1CCN(C(=O)c2cccc(C#Cc3ccccn3)c2)CC1)Nc1ccccc1 | 1 | 20 | half-life [1]: 3.1 h; bioavailability [4]: 65%; inhibition [6]: 60%
16 | 8 | – | – | – | – | O=C(CC1CCN(C(=O)c2cccc(C#Cc3ccccn3)c2)CC1)Nc1ccc(F)cc1F | 1 | 0.1 | half-life [10]: 2.7 h; remaining at 1 h [11]: 15%; bioavailability [12]: 38%; remaining at 1 h [13]: 0.1%; half-life [14]: 3.1 h; bioavailability [15]: 7%
96 | 97 | – | – | 640 | 550 | O=C(CC1CCN(C(=O)c2cccc(C#Cc3ccccn3)c2)CC1)Nc1ccccc1F | – | – | –
96 | 96 | – | – | 1000 | 1000 | O=C(CC1CCN(C(=O)c2cccc(C#Cc3ccccn3)c2)CC1)Nc1ccc(F)cc1 | – | – | –
18 | – | 80 | 97 | – | – | O=C(CC1CCN(C(=O)c2cccc(C#Cc3ccccn3)c2)CC1)Nc1ccc(O)cc1 | 3 | 20 | bioavailability [18]: < 2%; bioavailability [19]: < 2%
28 | 7 | – | – | – | – | O=C(CC1CCN(C(=O)c2cccc(C#Cc3ccccc3)c2)CC1)Nc1ccccc1 | – | – | –

From ChEMBL document CHEMBL1147802, “Diarylacetylene piperidinyl amides as novel anxiolytics” (Bioorg Med Chem Lett, 2006)
